We go through 20 compounds from US10479780B2, “Aminopyrazole derivatives” (Chugai Seiyaku Kabushiki Kaisha, priority 2015, dated 2019).

Common to all, as to format: biochemical
The target of one test is T1, human Yes1 enzyme (Homo sapiens, UniProt P07947).
T1 construct: made in house
Briefly: Yes1 enzyme inhibitory activity (time-resolved fluorometry, biotinylated peptide phosphorylation). As to conditions: read-out: YES_IC50. An outline of the steps:
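Inhibition was expressed against a compound-free control to give IC50, using TR-FRET read-out (Eu-cryptate anti-pTyr antibody, streptavidin-XL665).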

The target of the next test is T2, human Src enzyme (Homo sapiens, UniProt P12931).
T2 construct: purchased Carna Biosciences, Inc. 08-173
Briefly: Src enzyme inhibitory activity (time-resolved fluorometry, biotinylated peptide phosphorylation). As to conditions: read-out: SRC_IC50. An outline of the steps: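 Compounds were tested for blocking tyrosine phosphorylation of a biotinylated peptide substrate by recombinant human Src. Phosphorylated product was quantified by time-resolved fluorometry using europium cryptate and XL665 conjugates, and IC50 was calculated against the compound-free control.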

Another test concerns the target T3, human Lck enzyme (Homo sapiens, UniProt P06239).
T3 construct: purchased Carna Biosciences, Inc. 08-170
Briefly: Lck enzyme inhibitory activity (time-resolved fluorometry, biotinylated peptide phosphorylation). As to conditions: read-out: LCK_IC50. An outline of the steps: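 Readout pairs a europium cryptate-labelled anti-phosphotyrosine antibody with XL665-streptavidin, measured by time-resolved fluorescence. IC50 derived from percent inhibition against untreated controls.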

[1] abbreviates: biotinylated peptide phosphorylation.

Molecules are shown by their SMILES. Where two headings read alike, the source gives them in different places.

T2 sequence (P12931 whole entry): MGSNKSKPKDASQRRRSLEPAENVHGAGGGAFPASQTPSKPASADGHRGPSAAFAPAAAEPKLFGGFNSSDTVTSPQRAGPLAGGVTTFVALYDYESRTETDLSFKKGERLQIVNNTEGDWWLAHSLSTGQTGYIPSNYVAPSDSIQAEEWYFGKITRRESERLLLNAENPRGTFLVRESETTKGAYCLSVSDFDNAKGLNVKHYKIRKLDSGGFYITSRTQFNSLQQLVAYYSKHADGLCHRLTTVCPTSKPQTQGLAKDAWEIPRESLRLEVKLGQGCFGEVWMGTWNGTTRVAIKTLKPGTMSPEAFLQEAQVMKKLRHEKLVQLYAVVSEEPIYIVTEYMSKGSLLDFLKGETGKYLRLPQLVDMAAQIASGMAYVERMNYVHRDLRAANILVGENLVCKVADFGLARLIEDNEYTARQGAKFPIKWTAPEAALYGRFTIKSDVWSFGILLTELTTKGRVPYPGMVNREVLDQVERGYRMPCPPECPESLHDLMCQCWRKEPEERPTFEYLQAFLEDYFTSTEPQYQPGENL
T3 sequence (P06239 whole entry): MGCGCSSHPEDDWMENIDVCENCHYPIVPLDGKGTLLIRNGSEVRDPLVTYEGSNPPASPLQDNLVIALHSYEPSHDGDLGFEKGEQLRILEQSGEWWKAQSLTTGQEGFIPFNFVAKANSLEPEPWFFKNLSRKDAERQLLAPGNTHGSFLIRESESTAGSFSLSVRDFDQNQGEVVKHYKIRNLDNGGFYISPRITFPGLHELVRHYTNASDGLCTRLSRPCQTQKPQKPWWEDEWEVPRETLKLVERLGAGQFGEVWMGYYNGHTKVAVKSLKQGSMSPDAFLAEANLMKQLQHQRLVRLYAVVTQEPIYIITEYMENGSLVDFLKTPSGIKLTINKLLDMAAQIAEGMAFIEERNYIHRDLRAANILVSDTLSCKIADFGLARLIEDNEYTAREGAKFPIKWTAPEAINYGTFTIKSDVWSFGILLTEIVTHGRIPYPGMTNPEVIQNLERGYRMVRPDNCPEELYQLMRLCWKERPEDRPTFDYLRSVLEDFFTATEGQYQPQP
T1 sequence (P07947 whole entry): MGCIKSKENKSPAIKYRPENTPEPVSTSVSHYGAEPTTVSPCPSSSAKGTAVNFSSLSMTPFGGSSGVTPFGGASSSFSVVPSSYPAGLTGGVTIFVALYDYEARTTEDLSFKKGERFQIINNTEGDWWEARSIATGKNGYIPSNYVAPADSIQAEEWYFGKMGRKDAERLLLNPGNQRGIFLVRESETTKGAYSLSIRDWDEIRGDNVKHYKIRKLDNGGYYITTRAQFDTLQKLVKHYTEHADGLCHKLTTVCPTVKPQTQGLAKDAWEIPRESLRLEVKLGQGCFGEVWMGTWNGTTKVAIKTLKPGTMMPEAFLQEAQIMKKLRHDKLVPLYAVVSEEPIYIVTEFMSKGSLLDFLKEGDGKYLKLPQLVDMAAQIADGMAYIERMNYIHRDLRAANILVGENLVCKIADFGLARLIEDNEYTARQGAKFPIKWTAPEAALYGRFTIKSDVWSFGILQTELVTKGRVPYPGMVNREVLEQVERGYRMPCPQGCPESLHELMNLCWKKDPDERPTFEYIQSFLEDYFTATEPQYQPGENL

Turning to `Cc1cc(Oc2ccccc2F)ccc1-n1ncc(C(=O)c2cc3cc(OC(F)F)c(N4CC(C)(C)NS4(=O)=O)cc3[nH]2)c1N` [Example 5-1-340, [5-amino-1-[4-(2-fluorophenoxy)-2-methylphenyl]pyrazol-4-yl]-[5-(difluoromethoxy)-6-(4,4-dimethyl-1,1-dioxo-1,2,5-thiadiazolidin-2-yl)-1H-indol-2-yl]methanone], the results for the IC50 on human Yes1 enzyme, at human Src enzyme and at human Lck enzyme were 2.1 nM, 130 nM and 20 nM, respectively.

Regarding `Cc1cc(-n2ncc(C(=O)c3cc4cc(OC5CCN(C(C)C)CC5)c(NS(C)(=O)=O)cc4[nH]3)c2N)ccc1Oc1ccccc1F` [Example 5-1-156, N-(2-(5-amino-1-(4-(2-fluorophenoxy)-3-methylphenyl)-1H-pyrazole-4-carbonyl)-5-((1-isopropylpiperidin-4-yl)oxy)-1H-indol-6-yl)methanesulfonamide], the IC50 worked out at 1.6 nM on human Yes1 enzyme, 1100 nM at human Src enzyme and 64 nM at human Lck enzyme.

With `Cc1cc(-n2ncc(C(=O)c3cc4cc(OC5CCN(C6CCCC6)CC5)c(-c5ccccc5C(F)(F)F)cc4[nH]3)c2N)ccc1Oc1ccccc1F` [Example 5-1-385, (5-amino-1-(4-(2-fluorophenoxy)-3-methylphenyl)-1H-pyrazol-4-yl)(5-((1-cyclopentylpiperidin-4-yl)oxy)-6-(2-(trifluoromethyl)phenyl)-1H-indol-2-yl)methanone], the IC50 worked out at 3 nM on human Yes1 enzyme, 2400 nM at human Src enzyme and 390 nM at human Lck enzyme.

On to `Cc1cc2cc(C(=O)c3cnn(-c4ccc(Oc5ccccc5F)cc4C)c3N)[nH]c2cc1N1C(=O)NC2(CCNCC2)C1=O` [Example 5-1-364, 3-(2-(5-amino-1-(4-(2-fluorophenoxy)-2-methylphenyl)-1H-pyrazole-4-carbonyl)-5-methyl-1H-indol-6-yl)-1,3,8-triazaspiro[4.5]decane-2,4-dione], for which the IC50 is 1.3 nM on human Yes1 enzyme, 18 nM at human Src enzyme and 5.4 nM at human Lck enzyme.

For the compound `Cc1cc(Oc2ccccc2F)ccc1-n1ncc(C(=O)c2cc3cc(N4CCOCC4)c(N4C(=O)NC(C)(C)C4=O)cc3[nH]2)c1N` [Example 5-1-117, 3-[2-[5-amino-1-[4-(2-fluorophenoxy)-2-methylphenyl]pyrazole-4-carbonyl]-5-morpholin-4-yl-1H-indol-6-yl]-5,5-dimethylimidazolidine-2,4-dione], the IC50 on human Yes1 enzyme was determined as 0.48 nM; at human Src enzyme, 5 nM; on human Lck enzyme, 1.3 nM.

As for `Cc1cc(Oc2c(F)cccc2F)ncc1-n1ncc(C(=O)c2cc3cc(F)c(N(CCN4CCOCC4)S(C)(=O)=O)cc3[nH]2)c1N` [Example 4-2-128, N-[2-[5-amino-1-[6-(2,6-difluorophenoxy)-4-methylpyridin-3-yl]pyrazole-4-carbonyl]-5-fluoro-1H-indol-6-yl]-N-(2-morpholin-4-ylethyl)methanesulfonamide], the IC50 at human Yes1 enzyme (setting [1]) was found to be 1.2 nM; on human Src enzyme (setting [1]) it was 8.6 nM; at human Lck enzyme (setting [1]) it was 2.7 nM.

With `Cc1cc(Oc2c(F)cccc2F)ncc1-n1ncc(C(=O)c2cc3cc(OCC(F)F)c(N4CCOCC4)cc3[nH]2)c1N` [Example 4-1-016, [5-amino-1-[6-(2,6-difluorophenoxy)-4-methylpyridin-3-yl]pyrazol-4-yl]-[5-(2,2-difluoroethoxy)-6-morpholin-4-yl-1H-indol-2-yl]methanone], the IC50 came out at 2.1 nM at human Yes1 enzyme (setting [1]), 14 nM on human Src enzyme (setting [1]) and 7.5 nM on human Lck enzyme (setting [1]).

Turning to `Cc1cc(Oc2ccccc2F)ccc1-n1ncc(C(=O)c2cc3cc(F)c(NS(=O)(=O)c4cncc(F)c4)cc3[nH]2)c1N` [Example 5-1-547, N-[2-[5-amino-1-[4-(2-fluorophenoxy)-2-methylphenyl]pyrazole-4-carbonyl]-5-fluoro-1H-indol-6-yl]-5-fluoropyridine-3-sulfonamide], the figures for the IC50 on human Yes1 enzyme (setting [1]), at human Src enzyme (setting [1]) and on human Lck enzyme (setting [1]) were 2.9 nM, 350 nM and 30 nM, respectively.

As to `Cc1cc(Oc2c(F)cccc2F)ncc1-n1ncc(C(=O)c2cc3cc(OC4CCN(C(C)C)CC4)c(N4CCC(O)CC4)cc3[nH]2)c1N` [Example 5-1-202, [5-amino-1-[6-(2,6-difluorophenoxy)-4-methylpyridin-3-yl]pyrazol-4-yl]-[6-(4-hydroxypiperidin-1-yl)-5-(1-propan-2-ylpiperidin-4-yl)oxy-1H-indol-2-yl]methanone], the IC50 on human Yes1 enzyme amounted to 0.17 nM; on human Src enzyme, 3.1 nM; at human Lck enzyme it was 2.8 nM.

On to `Cc1cc2cc(C(=O)c3cnn(-c4cnc(Oc5ccccc5F)cc4C)c3N)[nH]c2cc1NS(=O)(=O)c1cccc(C#N)c1` [Example 5-1-440, N-[2-[5-amino-1-[6-(2-fluorophenoxy)-4-methylpyridin-3-yl]pyrazole-4-carbonyl]-5-mothyl-1H-indol-6-yl]-3-cyanobenzenesulfonamide], for which the results for the IC50 at human Yes1 enzyme (setting [1]), at human Src enzyme (setting [1]) and on human Lck enzyme (setting [1]) were 3.7 nM, 440 nM and 130 nM, respectively.

`CC(=O)N1CCC(c2cc3[nH]c(C(=O)c4cnn(-c5c(C)cc(Oc6ccccc6F)cc5F)c4N)cc3cc2C)CC1` [Example 5-1-138, 1-[4-[2-[5-amino-1-[2-fluoro-4-(2-fluorophenoxy)-6-methylphenyl]pyrazole-4-carbonyl]-5-methyl-1H-indol-6-yl]piperidin-1-yl] ethanone]: the IC50 on human Yes1 enzyme worked out at 3.1 nM; at human Src enzyme it was 68 nM; at human Lck enzyme it was 42 nM.

Regarding `Cc1cc(Oc2ccccc2F)ncc1-n1ncc(C(=O)c2cc3cc(F)c(NS(=O)(=O)c4cccc(Cl)n4)cc3[nH]2)c1N` [Example 5-1-529, N-[2-[5-amino-1-[6-(2-fluorophenoxy)-4-methylpyridin-3-yl]pyrazole-4-carbonyl]-5-fluoro-1H-indol-6-yl]-6-chloropyridine-2-sulfonamide], the IC50 on human Yes1 enzyme (setting [1]) was determined as 8.6 nM; on human Src enzyme (setting [1]) it was 840 nM; at human Lck enzyme (setting [1]) it was 260 nM.

Regarding `Cc1cc2cc(C(=O)c3cnn(-c4cnc(Oc5c(F)cccc5F)cc4C)c3N)[nH]c2cc1NS(=O)(=O)c1cccc(F)c1` [Example 5-1-551, N-[2-[5-amino-1-[6-(2,6-difluorophenoxy)-4-methylpyridin-3-yl]pyrazole-4-carbonyl]-5-methyl-1H-indol-6-yl]-3-fluorobenzenesulfonamide], the IC50 on human Yes1 enzyme (setting [1]) amounted to 19 nM; on human Src enzyme (setting [1]), 970 nM; at human Lck enzyme (setting [1]) it was 240 nM.

As to `Cc1cc2cc(C(=O)c3cnn(-c4cnc(Oc5c(F)cccc5F)cc4C)c3N)[nH]c2cc1NS(=O)(=O)c1cccc(F)n1` [Example 5-1-516, N-[2-[5-amino-1-[6-(2,6-difluorophenoxy)-4-methylpyridin-3-yl]pyrazole-4-carbonyl]-5-methyl-1H-indol-6-yl]-6-fluoropyridine-2-sulfonamide], the IC50 came out at 5.1 nM on human Yes1 enzyme (setting [1]), 540 nM at human Src enzyme (setting [1]) and 91 nM at human Lck enzyme (setting [1]).

Regarding `Cc1cc(Oc2cccc(F)c2)ccc1-n1ncc(C(=O)c2cc3cc(F)c(C4CCN(C(C)C)CC4)cc3[nH]2)c1N` [Example 5-1-009, [5-amino-1-[4-(3-fluorophenoxy)-2-methylphenyl]pyrazol-4-yl]-[5-fluoro-6-(1-propan-2-ylpiperidin-4-yl)-1H-indol-2-yl] methanone], the IC50 at human Yes1 enzyme turned out to be 1.9 nM; at human Src enzyme it was 9.3 nM; on human Lck enzyme, 2.8 nM.

For the compound `Cc1cc2cc(C(=O)c3cnn(-c4cnc(Oc5ccccc5F)cc4C)c3N)[nH]c2cc1C1CCN(S(C)(=O)=O)CC1` [Example 5-1-090, [5-amino-1-[6-(2-fluorophenoxy)-4-methylpyridin-3-yl]pyrazol-4-yl]-[5-methyl-6-(1-methylsulfonylpiperidin-4-yl)-1H-indol-2-yl] methanone], the values for the IC50 at human Yes1 enzyme, at human Src enzyme and at human Lck enzyme were 2.6 nM, 25 nM and 3.8 nM, respectively.

With `Cc1cc(Oc2c(F)cccc2F)ncc1-n1ncc(C(=O)c2cc3cc(F)c(NS(=O)(=O)c4cncc(Cl)c4)cc3[nH]2)c1N` [Example 5-1-543, N-[2-[5-amino-1-[6-(2,6-difluorophenoxy)-4-methylpyridin-3-yl]pyrazole-4-carbonyl]-5-fluoro-1H-indol-6-yl]-5-chloropyridine-3-sulfonamide], the IC50 at human Yes1 enzyme (setting [1]) amounted to 9.8 nM; at human Src enzyme (setting [1]), 640 nM; at human Lck enzyme (setting [1]) it was 360 nM.

`COc1cccc(S(=O)(=O)Nc2cc3[nH]c(C(=O)c4cnn(-c5cnc(Oc6c(F)cccc6F)cc5C)c4N)cc3cc2OCC(F)F)c1` [Example 5-1-327, N-[2-[5-amino-1-[6-(2,6-difluorophenoxy)-4-methylpyridin-3-yl]pyrazole-4-carbonyl]-5-(2,2-difluoroethoxy)-1H-indol-6-yl]-3-methoxybenzenesulfonamide]: the IC50 at human Yes1 enzyme was 7.3 nM; at human Src enzyme, 920 nM; on human Lck enzyme, 270 nM.

For `Cc1cc(Oc2c(F)cccc2F)ncc1-n1ncc(C(=O)c2cc3cc(OCC(F)F)c(NS(=O)(=O)c4cccnc4)cc3[nH]2)c1N` [Example 5-1-384, N-[2-[5-amino-1-[6-(2,6-difluorophenoxy)-4-methylpyridin-3-yl]pyrazole-4-carbonyl]-5-(2,2-difluoroethoxy)-1H-indol-6-yl]pyridine-3-sulfonamide], the IC50 at human Yes1 enzyme was 2.4 nM; on human Src enzyme, 90 nM; at human Lck enzyme it was 44 nM.

In the case of `Cc1cc(Oc2c(F)cccc2F)ncc1-n1ncc(C(=O)c2cc3cc(OC(F)F)c(N4CCOC4=O)cc3[nH]2)c1N` [Example 4-21-009, 3-[2-[5-amino-1-[6-(2,6-difluorophenoxy)-4-methylpyridin-3-yl]pyrazole-4-carbonyl]-5-(difluoromethoxy)-1H-indol-6-yl]-1,3-oxazolidin-2-one], the results for the IC50 at human Yes1 enzyme (setting [1]), at human Src enzyme (setting [1]) and at human Lck enzyme (setting [1]) were 0.83 nM, 9.9 nM and 2.7 nM, respectively.
